Results on seven compounds are retold here after publication PMC5041982, “Small-molecule inhibition of STAT3 in radioresistant head and neck squamous cell carcinoma” (Oncotarget, 2016).

Where two headings read alike, the source gives them in different places. A value given as a limit tells only on which side of the number the result lay.

For orientation: IC50 means the concentration at which inhibition is half-maximal. Broadly, the EC50 is the concentration at which the effect is half-maximal. For orientation: MTD means the largest dose that counted as tolerated.

For data set [1], the target named is T1, STAT3 (Homo sapiens, UniProt P40763). Kind of data set: STAT3/pY-peptide binding surface plasmon resonance (SPR) assay. Particulars: for Inhibition of STAT3 binding to pY-peptide compared with C188: SPR; for IC50: STAT3 200 nM, EGFR pY1068 dodecapeptide, mean, n ≥ 2, read-out: pY-Peptide Binding (SPR) IC50. On the procedure:
(§1) The equilibrium binding levels obtained ± compound were normalized (resonance obtained in the presence of compound ÷ the resonance obtained in the absence of compound × 100) and plotted against Log [nM] […] B. Inhibition of ligand-stimulated STAT phosphorylation, measured by phosphoflow. Serum-starved (1 hour) Kasumi-1 cells, pre-incubated with compound/DMSO (1 hour), were treated with G-CSF (10 ng/ml, 15 min, left two panels) or IFN-γ (10ng/ml, 15 min, right panel). Cells were permeabilized and stained with Alexa647-pSTAT3, and PE-pSTAT1 antibodies and analyzed on BD LSR2. FCS files were uploaded to Cytobank for pSTAT3 and pSTAT1 quantitation. Histograms depicting pSTAT3 and pSTAT1 levels are shown. C. Mean fluorescence (pSTAT3/1) levels were plotted as function the Log [M] compound, and IC50 calculated using GraphPad. […] D. Inhibition of ligand-stimulated STAT phosphorylation, measured by Luminex. Serum-starved (1 hour) Kasumi-1 cells, pre-incubated with compound/DMSO (0/0.1/0.3/1/3/10/100 μM, 1 hour), were treated with G-CSF (10 ng/ml, 15′). Total protein extracts of cells were assayed for pSTAT3, pSTAT1, and GAPDH levels by Luminex. GAPDH-normalized pSTAT3 or pSTAT1 values were divided by this ratio for untreated cells and expressed in percentage. These values were plotted as a function of Log [M] compound, and IC50 values calculated using GraphPad. […]
3-D pharmacophore sorting used to evaluate the effect of each compound on STAT3 binding. Responses were normalized by dividing the […]
fingerprint screening were converted into 3-D structures compounds at 2 min and multiplying by 100. IC values […]
for analysis as described below. were determined by plotting % maximum response as a 3-D pharmacophore generation function of log concentration of compound and fitting the Each molecular chemical feature, including experimental points to a competitive binding model using hydrogen bond donor, hydrogen bond acceptor, positive a four parameter logistic equation: R = Rhigh − (Rhigh − R low)/ (1 + conc/A1)^A2, where R = percent response at and negative ionizable group, and hydrophobic region, inhibitor concentration, R = percent response with no was generated using the LigandScout application compound, R= percent response at highest compound high framework and projected into 3-D space. concentration, A2 = fitting parameter (slope) and A1 = low Feature-pairing IC50 (BIAevaluation Software version 4.1). The inhibition Each chemical feature was converted into distance constant (Ki) was derived from the Cheng-Prusoff bin and the complete set of distance bins used to construct equation Ki=IC50/(1+[C]/Kd) as used by Halling et al a cost matrix. The most favorable pairing based on cost where C stands for STAT3 concentration used in the SPR matrix was identified. assay and Kd denotes the dissociation constant for STAT3 3-D pharmacophore transformation binding to its phosphorylated EGFR ligand in the SPR […]
STAT3/pY-peptide binding assay and total protein extracted from cell pellets. […]
STAT3 binding assays were performed at 25 °C (Millipore, Danvers, MA) coupled to antibody against
(SPR reads the build-up and loss of mass on a sensor chip optically.)

For data set [2], the target named is T2, pSTAT3 (Tyr-705) (Homo sapiens, UniProt P40763).
T2 construct: endogenous in cells; host or cells: Kasumi-1
Kind of data set: Phosphoflow, G-CSF-induced STAT3 phosphorylation in Kasumi-1 cells. Type of data set: cell-based. Particulars: Kasumi-1, G-CSF 10 ng/ml 15 min; mean, n ≥ 2; read-out: Ligand Induced Phosphorylation (Phosphoflow) pSTAT3 (GCSF) IC50. On the procedure: (§2) The equilibrium binding levels obtained ± compound were normalized (resonance obtained in the presence of compound ÷ the resonance obtained in the absence of compound × 100) and plotted against Log [nM] […] B. Inhibition of ligand-stimulated STAT phosphorylation, measured by phosphoflow. Serum-starved (1 hour) Kasumi-1 cells, pre-incubated with compound/DMSO (1 hour), were treated with G-CSF (10 ng/ml, 15 min, left two panels) or IFN-γ (10ng/ml, 15 min, right panel). Cells were permeabilized and stained with Alexa647-pSTAT3, and PE-pSTAT1 antibodies and analyzed on BD LSR2. FCS files were uploaded to Cytobank for pSTAT3 and pSTAT1 quantitation. Histograms depicting pSTAT3 and pSTAT1 levels are shown. C. Mean fluorescence (pSTAT3/1) levels were plotted as function the Log [M] compound, and IC50 calculated using GraphPad. […] D. Inhibition of ligand-stimulated STAT phosphorylation, measured by Luminex. Serum-starved (1 hour) Kasumi-1 cells, pre-incubated with compound/DMSO (0/0.1/0.3/1/3/10/100 μM, 1 hour), were treated with G-CSF (10 ng/ml, 15′). Total protein extracts of cells were assayed for pSTAT3, pSTAT1, and GAPDH levels by Luminex. GAPDH-normalized pSTAT3 or pSTAT1 values were divided by this ratio for untreated cells and expressed in percentage. These values were plotted as a function of Log [M] compound, and IC50 values calculated using GraphPad.
(§3) Phosphoflow analysis was done as described in Xu et al. Briefly, Kasumi-1 cells, were serum-starved, pre-treated with compound or DMSO (1 hour, RT) and then stimulated with 20 μl of GCSF (10 ng/ml) for 15 minutes at 37°C. The cells were then permeabilized and stained with Alexa647-pSTAT3, Alexa488-pSTAT5 and PE-pSTAT1 antibodies and analyzed using the BD LSR2. FCS files were exported and uploaded to Cytobank for determination of phosphoproteins as earlier. Gating was done on live, single cells and then gates selected for positive ligand-activated pSTAT3 and pSTAT1. IC50 values were calculated using the GraphPad Prism.

The test system of data set [3] is pSTAT5. The data set is described as follows: Phosphoflow, G-CSF-induced pSTAT5 in Kasumi-1 cells. The class given is cell-based. Particulars: mean, n ≥ 2, read-out: Ligand Induced Phosphorylation (Phosphoflow) pSTAT5 (G-CSF) IC50. On the procedure:
as §3

Data set [4] has as its target T3, pSTAT1 (Tyr-701) (Homo sapiens, UniProt P42224).
T3 construct: endogenous in cells; host or cells: Kasumi-1
T3 sequence (P42224 1-750): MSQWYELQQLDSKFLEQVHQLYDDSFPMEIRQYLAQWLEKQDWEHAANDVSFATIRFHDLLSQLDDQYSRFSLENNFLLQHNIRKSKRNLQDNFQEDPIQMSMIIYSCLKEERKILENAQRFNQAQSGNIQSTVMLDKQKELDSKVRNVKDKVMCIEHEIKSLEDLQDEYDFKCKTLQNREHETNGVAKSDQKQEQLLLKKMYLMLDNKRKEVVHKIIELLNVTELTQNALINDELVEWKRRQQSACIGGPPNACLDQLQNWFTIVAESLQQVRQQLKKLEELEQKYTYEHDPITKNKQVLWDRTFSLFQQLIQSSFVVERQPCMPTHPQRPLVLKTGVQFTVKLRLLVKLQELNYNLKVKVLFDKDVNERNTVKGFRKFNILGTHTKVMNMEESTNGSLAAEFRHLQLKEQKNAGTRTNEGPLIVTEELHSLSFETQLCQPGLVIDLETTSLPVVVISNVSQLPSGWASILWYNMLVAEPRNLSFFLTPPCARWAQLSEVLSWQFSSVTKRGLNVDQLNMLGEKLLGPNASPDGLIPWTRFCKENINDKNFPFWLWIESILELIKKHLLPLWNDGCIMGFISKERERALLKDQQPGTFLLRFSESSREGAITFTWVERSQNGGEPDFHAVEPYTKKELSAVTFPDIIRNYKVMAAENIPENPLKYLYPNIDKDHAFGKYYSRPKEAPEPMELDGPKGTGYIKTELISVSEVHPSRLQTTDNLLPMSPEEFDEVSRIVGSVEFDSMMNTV
Kind of data set: Phosphoflow, IFN-γ-induced pSTAT1 in Kasumi-1 cells. The class given is cell-based. On the procedure:
as §2, §3

The subject of data set [5] is normal murine bone marrow colony formation. Kind of data set: Normal murine bone marrow colony formation. The class given is cell-based. Particulars: studies not shown (Tweardy et al 2010, unpublished).
Data set [6] addresses T3, pSTAT1 (Tyr-701). The data set is described as follows: Luminex bead-based assay, G-CSF-induced pSTAT1 in Kasumi-1 cells. The class given is cell-based. Particulars: Figure 2D, Kasumi-1, G-CSF; read-out: Luminex pSTAT1 (Tyr-701) IC50, representative experiment. On the procedure:
as §1, with “GAPDH-normalized pSTAT3 or pSTAT1 values were divided by this ratio for untreated cells and expressed in percentage.” left out
for analysis as described below. were determined by plotting % maximum response as a 3-D pharmacophore generation function of log concentration of compound and fitting the Each molecular chemical feature, including experimental points to a competitive binding model using hydrogen bond donor, hydrogen bond acceptor, positive a four parameter logistic equation: R = Rhigh − (Rhigh − R low)/ (1 + conc/A1)^A2, where R = percent response at and negative ionizable group, and hydrophobic region, inhibitor concentration, R = percent response with no was generated using the LigandScout application compound, R= percent response at highest compound high framework and projected into 3-D space. concentration, A2 = fitting parameter (slope) and A1 = low Feature-pairing IC50 (BIAevaluation Software version 4.1). […]

In data set [7] the test system is UM-SCC-17B cells. The data set is described as follows: Anchorage dependent growth (MTT). Type of data set: cell-based. Particulars: Homo sapiens, 48 hrs. On the procedure: GAPDH-normalized pSTAT3 or pSTAT1 values were divided by that for untreated cells and expressed in percentage. These values were plotted as a function of Log [M] compound, and IC50 values calculated using GraphPad. […] Viable cells quantitated using MTT. Relative % viability was measured by (viability after any treatment ÷ viability of untreated cells × 100) and plotted as a function of Log [M] […] C. […] Representative curves are shown.
Cells were cultured in triplicates in complete DMEM ± drug, in ultra-low attachment 96 well plates for 72 hrs or cell-culture treated plates for 48 hrs and viable cells were quantitated using MTT. Optical density (OD) was measured at 590 nm using a 96-well multi-scanner (EL-800 universal microplate reader, BioTek Inc, VT, USA). Relative % viability (viability after any treatment ÷ viability of untreated cells × 100) was plotted along Y-axis. At least 2 replicates experiments were performed and were used for IC50 calculation using GraphPad software.

In data set [8] the test system is UM-SCC-17B xenografts. The data set is described as follows: UM-SCC-17B tumor xenograft growth in nude mice. The class given is in vivo. Particulars: IP 5 times a week, 50 mg/kg/day. On the procedure:
(§4) Tumor volumes were measured twice weekly.
as §4

In data set [9] the test system is MB-MDA-468. Particulars: MB-MDA-468 in vitro; read-out: Apoptosis EC50; cited from earlier work.
The nature of data set [10]: Maximum tolerated dose in mice. Particulars: mouse, in vivo.
In data set [11] the target is pSTAT3 (Homo sapiens, UniProt P40763). The data set is described as follows: pSTAT3 levels in UM-SCC-17B tumor xenografts (immunoblot). Particulars: UM-SCC-17B xenografts, C188 50 mg/kg/day.
Method: Tumor tissue was minced, homogenized and first), 50% PEG-400 (added second), 40% Saline (added proteins extracted using high-salt buffer, as described last) then vortexed and sonicated at concentration (10 mg/
C57BL/6 mice were provided in membrane (Millipore, Waltham, MA) and immunoblotted. triplicate, a single dose by body weight via either intra-Membranes were probed with antibody against peritoneal (IP) or oral (PO) route at 10 mg/kg at a volume STAT1 pY701 or STAT3 pY705 total STAT1 or STAT3 of 10 mL/kg and plasma samples collected as shown (Transduction labs, Lexington, KY) and β–actin (Abcam, in the study table below. At the indicated times, 3 mice Cambridge, MA). Membranes were stripped between per time point were euthanized per dose route and then
The subject of data set [12] is tumor cells. Particulars: read-out: IC50 killing of tumor cells; cited from earlier work.
Data set [13] deals with T1, STAT3. Set-up: method as in PMID 24308725. Particulars: read-out: IC50 inhibition of STAT3 in a luciferase reporter assay; cited from earlier work. (A reporter such as luciferase makes a cellular process visible.)
Data set [14] addresses T1, STAT3. Set-up: method as in PMID 17114005. Particulars: read-out: IC50 inhibition of STAT3 binding to pY-peptide; cited from earlier work.
Data set [15] relates to pSTAT3. Particulars: read-out: IC50 inhibition of cytokine-induced pSTAT3 levels; cited from earlier work.
Setting [16] is: Kasumi-1, IFN-γ 10 ng/ml 15 min, mean, n ≥ 2, read-out: Ligand Induced Phosphorylation (Phosphoflow) pSTAT1 (IFN-γ) IC50.

T1 sequence (P40763 whole entry, species assumed): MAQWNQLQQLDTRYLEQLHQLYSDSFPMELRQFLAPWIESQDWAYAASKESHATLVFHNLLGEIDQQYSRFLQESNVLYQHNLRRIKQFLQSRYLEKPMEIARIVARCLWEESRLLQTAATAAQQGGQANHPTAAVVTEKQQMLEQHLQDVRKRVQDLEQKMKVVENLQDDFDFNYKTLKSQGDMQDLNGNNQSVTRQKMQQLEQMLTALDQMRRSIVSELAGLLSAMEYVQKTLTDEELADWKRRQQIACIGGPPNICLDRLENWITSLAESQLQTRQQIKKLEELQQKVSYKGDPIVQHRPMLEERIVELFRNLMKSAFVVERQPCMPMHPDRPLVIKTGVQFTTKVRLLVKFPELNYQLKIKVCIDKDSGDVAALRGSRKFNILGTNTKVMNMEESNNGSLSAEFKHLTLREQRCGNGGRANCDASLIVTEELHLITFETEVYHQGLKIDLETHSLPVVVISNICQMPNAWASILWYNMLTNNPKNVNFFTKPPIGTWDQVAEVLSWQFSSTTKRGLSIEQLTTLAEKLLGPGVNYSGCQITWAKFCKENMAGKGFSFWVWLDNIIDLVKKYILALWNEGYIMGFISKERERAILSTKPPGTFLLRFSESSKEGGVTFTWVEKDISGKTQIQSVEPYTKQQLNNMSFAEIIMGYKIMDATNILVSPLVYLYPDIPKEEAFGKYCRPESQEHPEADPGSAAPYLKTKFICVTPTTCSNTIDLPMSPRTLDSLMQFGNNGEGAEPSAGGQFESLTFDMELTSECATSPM
T2 sequence (P40763 whole entry): as the sequence (P40763 whole entry, species assumed) above
Chain of pSTAT3 (Homo sapiens, UniProt P40763) (P40763 whole entry): as the sequence (P40763 whole entry, species assumed) above

For `CC(C)OC(=O)C(C(=O)C(F)(F)F)c1cc(NS(=O)(=O)c2ccc(F)cc2)c2ccccc2c1O` (stereo not shown) [Compound C188-7], the “Inhibition of STAT3 binding to pY-peptide compared with C188” value in [1] is on record as “improved inhibition”. For the same compound, the IC50 is 4.7 ± 2.1 µM in data set [1], 10.5 ± 13.4 µM in data set [2], over 300 µM in data set [3] and 35 ± 39.6 µM in data set [4] (setting [16]). In data set [5], the “Inhibition of normal murine bone marrow colony formation” value is reported as “inhibited”.
Take `CC(C)OC(=O)C(C(=O)C(F)(F)F)c1cc(NS(=O)(=O)c2ccc3c4c(cccc24)C(=O)N3)c2ccccc2c1O` (stereo not shown) [Compound C188-8]: the “Inhibition of STAT3 binding to pY-peptide compared with C188” value in data set [1] is on record as “improved inhibition”. The IC50 in data set [1] came to 4.5 ± 2.1 µM; in [2], 3.4 ± 0.9 µM; in data set [3], 23 µM; in data set [4] (setting [16]), 35 ± 25.2 µM. Also, in [5], the “Inhibition of normal murine bone marrow colony formation” value was “inhibited”.
With `O=C(O)CSc1cc(NS(=O)(=O)c2ccc(C(=O)O)cc2)c2ccccc2c1O` [Compound C188], the IC50 was 40 µM in data set [3]; 23.4 µM in data set [4] (Figure 2C, Kasumi-1, read-out: Phosphoflow pSTAT1 (Tyr-701) IC50, representative experiment); 21.9 µM in [6]; 6.3 ± 0.8 µM in data set [7] (mean, read-out: Anchorage dependent growth (MTT) IC50); 5.7 µM in [7] (Figure 4B, read-out: Anchorage Dependent growth IC50, representative experiment). In addition, the “Growth of established UM-SCC-17B xenograft tumors” value in data set [8] is reported as “continued to grow”. Moreover, the EC50 in data set [9] was 0.7 µM. In data set [10], this compound yielded an MTD at 14 days of 100 mg/kg/day. In data set [11], the “Levels of pSTAT3 in tumors” value is “not reduced significantly”.
Turning to `NS(=O)(=O)c1cccc2c1C(=O)c1cccc(O)c1C2=O` [LLL12], in [12], the IC50 was about 5 µM.
For the compound `C[C@@H]1CC(=O)c2c(ccc3c2C(=O)c2cccc(O)c2C3=O)C1` [STA-21], the IC50 in data set [13] was 12.2 to 18.7 µM.
With `O=[N+]([O-])c1ccc2c(c1)S(=O)(=O)C=C2` [Stattic], in data set [14], the IC50 is 5.1 µM.
As for `COC(=O)[C@H](Cc1cn(C)cn1)NC(=O)[C@@H](NC(=O)Nc1cc(C(F)(F)F)cc(C(F)(F)F)c1)C(C)C` [XZH-5], in [15], the IC50 was 20 to 30 µM.
